One molecule from patent US20230240290A1, “USE OF (Z)-3-HEXENYL ESTERS AND METHOD FOR PROTECTING PLANTS AGAINST PESTS” (UNIVERSITAT POLITÈCNICA DE VALÈNCIA, priority 2020, published 2023) can be followed below.

The test system of one data set is Tuta absoluta. Conditions: in vivo. Here is the method: Two consecutive experiments were performed to assess the effect of exposure to both volatiles on T. absoluta. The first experiment studied the effect on the laying of T absoluta. The selected eggs laid in the first experiment were later used in the second experiment to study the mortality of immature T. absoluta specimens developed in plants exposed to (Z)-3-hexenyl propanoate. The same three treatments described above for T. urticae were also assayed for T. absoluta. The laying of T. absoluta was assessed in 8 tomato plants (cv. Moneymaker) per treatment. Each of the plants was isolated inside a plastic cage (60×60×60 cm) (BugDorm-2) and kept in a climatic chamber at 25±2° C., 65±5% HR, 14:10 (L:D) h photoperiod following the same assay distribution described for T. urticae. Inside each cage (replica), 2 adult pairs were released from T. absoluta (males and females) and left undisturbed for 72 hours. After this time, T. absoluta adults were removed, and the number of eggs was counted.
To study the mortality of T. absoluta in the plants exposed to the 3 treatments described above, 6 T. absoluta eggs per plant were equally distributed on all the leaves with the help of a fine brush. […] Mortality of T. absoluta was assessed in 8 tomato plants (cv. Moneymaker) per treatment. […] As soon as the adults began to emerge, they were counted and removed daily from the cages.

Data set [1] concerns PIN2 (marker gene for the jasmonic acid signaling pathway). The data set is described as follows: Semi-field release assay, transcriptional response of PIN2 in tomato plants. The class given is in vivo. Conditions: 4 weeks. Here is the method: Two different types of polymeric emitters were used to test the activation level that different emission levels of (Z)-3-hexenyl propionate can provide: 4-mL low-density (LD) polyethylene vial and 4-mL high-density (HD) polyethylene vial. The highest emission level (5 mg/day) was achieved through previous laboratory studies with LD dispensers loaded with 20 mg of the pure substance. The lowest emission level (0.01 mg/day) was provided by HD vials loaded with a 1:100 mixture of (Z)-3-hexenyl propionate and paraffinic oil (0.02:2; g:g). The emission kinetics of the emitters used during the experiments was controlled by studying weight loss (gravimetric method). […] The difference in weight recorded in each period will be the emitted quantity of the substance for each type of dispenser. To obtain the mean emission level of each dispenser, the recorded weights (y) are related to the aging time (x) using a multiple regression analysis.
Once the mentioned emission levels have been established, 5 and 0.01 mg/day/dispenser, tomato plants were exposed to the different emission levels through an experiment under semi-field conditions in a glass greenhouse. […] Environmental conditions were monitored and recorded using a Mithra clima data logger (ver. 1.01.03, Priva nutricontrol Ibérica S.L). […]

Data set [2] relates to NPR1 (salicylic acid pathway). The data set is described as follows: Transcriptional response of NPR1 in Carrizo citrange plants exposed to the volatile. The class given is in vivo. Conditions: intact Carrizo citrange plants exposed 24 h; n=6.
For the next data set, the system named is plant. The experiment in a line: Growth and production of plants exposed to the volatile. The class given is in vivo.

For `CC/C=C\CCOC(=O)CC` [(Z)-3-hexenyl propanoate], the “Mortality from T. absoluta egg to adult” value in the data set with Tuta absoluta is “around 80%”. Further, the “Transcriptional response of PIN2 (jasmonic acid pathway)” value in data set [1] (0.01 mg/day emission, HD polyethylene vial) was “did not affect exposed plants”; in data set [1] (5 mg/day emission, LD polyethylene vial), “significantly activated”. For the same molecule, the “Transcriptional response of NPR1 compared to control” value in data set [2] is on record as “significantly overexpressed”. The “Growth or production of the plant” value in the data set with plant was “does not reduce the growth or production of the plant”.
